According to the NIST ThermoML archive (doi:10.1021/je2001446):
Several values for one entry are separate records, joined by “and”; a condition that tells them apart may be missing. Identical values can stand only once. Numbers after ± are expanded uncertainties.

Legend:
[1] = Crystal
[2] = Molar enthalpy of transition or fusion; conditions: Crystal

Compound | Normal melting temperature [1] | Molar enthalpy of transition or fusion [2] [kcal/mol]
CCCC[n+]1cccc(C)c1.[Cl-] [1-butyl-3-methylpyridinium chloride] | 111.4 ± 0.8 °C and 109.8 ± 2.5 °C | 6.57 ± 0.765
CCCCCCCCCC[n+]1cccc(C)c1.[Cl-] [1-decyl-3-methylpyridinium chloride] | 79.4 ± 0.8 °C and 75.6 ± 2.5 °C | 3.44 ± 0.741
CCCCCCCCCCCC[n+]1cccc(C)c1.[Cl-] [1-dodecyl-3-methylpyridinium chloride] | 87.7 ± 0.8 °C and 86.8 ± 2.5 °C | 8.87 ± 0.789
CCCCCCCCCCCCCCCC[n+]1cccc(C)c1.[Cl-] [1-hexadecyl-3-methylpyridinium chloride] | 110 ± 0.8 °C and 110.0 ± 2.5 °C | 9.63 ± 0.813
CCCCCC[n+]1cccc(C)c1.[Cl-] [1-hexyl-3-methylpyridinium chloride] | 82.0 ± 0.8 °C and 80 ± 2.5 °C | 4.71 ± 0.741
CCCCCCCC[n+]1cccc(C)c1.[Cl-] [1-octyl-3-methylpyridinium chloride] | 80.1 ± 0.8 °C and 79.2 ± 2.5 °C | 3.56 ± 0.741
CCCCCCCCCCCCCC[n+]1cccc(C)c1.[Cl-] [1-tetradecyl-3-methylpyridinium chloride] | 93.7 ± 0.8 °C and 94.6 ± 2.5 °C | 10.2 ± 0.813
CCCCCCCCCCCCCCCCCC[n+]1cccc(C)c1.[Cl-] [3-methyl-1-octadecylpyridinium chloride] | 112.2 ± 0.8 °C and 113 ± 2.5 °C | 6.72 ± 0.765
